# Data: patent publication US10160762B2, “6-alkyl dihydropyrazolopyrimidinone compounds as PDE2 inhibitors” (Merck Sharp & Dohme Corp., priority 2015, dated 2018)
# Biological target: T1, human PDE2A1 (Homo sapiens, UniProt O00408)
# T1 construct: GST; purchased BPS Bioscience (San Diego, Calif.) 60020; host or cells: insect cells
# Assay: IMAP FP PDE assay, human PDE2A1
# Type: biochemical
# Conditions: Lab B; read-out: Human PDE2 Ki (nM) Lab B
# How it was run: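 FP (IMAP) read after 60 min room-temperature reaction of insect-cell GST-human PDE2A1 with 50 nM FAM-cAMP plus 1000 nM cGMP (pH 7.2 Tris, Mg2+, DTT). Compounds titrated 3-fold over ten points. Apparent Ki derived assuming KM of 10,000 nM; enzyme at 20% substrate turnover.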
# T1 sequence (O00408 1-920 isoform O00408-2): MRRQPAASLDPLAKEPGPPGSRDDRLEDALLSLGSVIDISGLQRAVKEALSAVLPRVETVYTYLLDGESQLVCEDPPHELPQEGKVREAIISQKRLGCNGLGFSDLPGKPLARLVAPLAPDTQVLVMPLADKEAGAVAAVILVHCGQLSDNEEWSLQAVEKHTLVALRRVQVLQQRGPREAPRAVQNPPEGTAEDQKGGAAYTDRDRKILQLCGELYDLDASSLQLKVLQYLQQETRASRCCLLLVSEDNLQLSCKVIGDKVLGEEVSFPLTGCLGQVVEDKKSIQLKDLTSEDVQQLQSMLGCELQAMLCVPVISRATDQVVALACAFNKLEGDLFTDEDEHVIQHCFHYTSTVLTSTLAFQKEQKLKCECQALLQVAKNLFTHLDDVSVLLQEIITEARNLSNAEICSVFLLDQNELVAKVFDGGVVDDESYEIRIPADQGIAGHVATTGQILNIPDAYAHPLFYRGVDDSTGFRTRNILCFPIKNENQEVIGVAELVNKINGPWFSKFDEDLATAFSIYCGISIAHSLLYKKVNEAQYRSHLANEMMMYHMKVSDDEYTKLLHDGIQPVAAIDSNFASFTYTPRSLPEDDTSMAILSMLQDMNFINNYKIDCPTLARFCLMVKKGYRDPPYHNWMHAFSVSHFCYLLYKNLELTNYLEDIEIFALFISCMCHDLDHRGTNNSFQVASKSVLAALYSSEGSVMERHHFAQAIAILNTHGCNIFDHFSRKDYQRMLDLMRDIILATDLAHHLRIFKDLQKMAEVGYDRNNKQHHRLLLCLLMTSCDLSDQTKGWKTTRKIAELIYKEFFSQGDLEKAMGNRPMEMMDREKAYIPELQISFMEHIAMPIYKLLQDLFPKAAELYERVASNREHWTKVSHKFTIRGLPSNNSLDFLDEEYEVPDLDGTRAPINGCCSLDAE
row,SMILES,Ki
1,"CC(c1ccc(C(F)(F)F)cc1)n1nc(CO)c2c(=O)[nH]c(CC3CC3)nc21 (single isomer, unassigned) [Example 310, (S)- or (R)-6-(Cyclopropyl-methyl)-3-(hydroxymethyl)-1-(1-(4-(trifluoromethyl)phenyl)ethyl)-1,5-dihydro-4H-pyrazolo[3,4-d]pyrimidin-4-one]",11 nM
2,"CC(c1ccc(C(F)(F)F)cc1)n1nc(C#N)c2c(=O)[nH]c(CC3CC3)nc21 (single isomer, unassigned) [Example 346]",34 nM
3,"COCc1nc2c(c(C(F)F)nn2C(C)c2ccc(C(F)(F)F)cc2)c(=O)[nH]1 (single isomer, unassigned) [Example 188, (S)- or (R)-3-(Difluoro-methyl)-6-(methoxymethyl)-1-{1-[4-(trifluoromethyl)phenyl]ethyl}-1,5-dihydro-4H-pyrazolo-[3,4-d]pyrimidin-4-one]",2.6 nM
4,"CC(=O)Nc1nn(C(C)c2ccc(C(F)(F)F)cc2)c2nc(C)[nH]c(=O)c12 (single isomer, unassigned) [Example 259]",~2120 nM
5,"Cc1nc2c(c(CO)nn2C(C)c2ccc(C3(C(F)(F)F)CC3)cc2)c(=O)[nH]1 (single isomer, unassigned) [Example 81]",7.7 nM
6,"Cc1nc2c(c(CO)nn2C(C)c2ccc(C(F)(F)F)c(I)c2)c(=O)[nH]1 (single isomer, unassigned) [Example 138, (R)- or (S)-3-(Hydroxymethyl)-1-(1-(3-iodo-4-(trifluoromethyl-)phenyl)ethyl)-6-methyl-1,5-dihydro-4H-pyrazolo[3,4-d]pyrimidin-4-one]",> 2960 nM
7,"Cc1nc2c(c(CO)nn2C(C)c2ccc(OC(F)F)c(F)c2)c(=O)[nH]1 (single isomer, unassigned) [Example 112, (R)- or (S)-1-(1-(4-(Difluoromethoxy)-3-fluorophenyl)ethyl)-3-(hydroxymethyl)-6-methyl-1H-pyrazolo[3,4-d]pyrimidin-4(5H)-one]",88 nM
8,"Cc1nc2c(c(C(=O)N3CCOCC3)nn2C(C)c2ccc(C(F)(F)F)cc2)c(=O)[nH]1 (single isomer, unassigned) [Example 271, (S)- or (R)-6-Methyl-3-(morpholine-4-carbonyl)-1-(1-(4-(trifluoromethyl)phenyl)ethyl)-1H-pyrazolo[3,4-d]pyrimidin-4(5H)-one]",> 2960 nM
9,"Cc1nc2c(c(CO)nn2C(C)c2ccc(C(F)(F)F)nc2)c(=O)[nH]1 (single isomer, unassigned) [Example 131, (S)- or (R)-3-(Hydroxymethyl)-6-methyl-1-(1-(6-(trifluoro-methyl)pyridin-3-yl)ethyl)-1H-pyrazolo[3,4-d]pyrimidin-4(5H)-one]",57 nM
10,"Cc1nc2c(c(CC3COC3)nn2C(C)c2ccc(C(F)(F)F)cc2)c(=O)[nH]1 (centres unmarked) [Example 289, 6-Methyl-3-(oxetan-3-ylmethyl)-1-(1-(4-(trifluoromethyl)phenyl)ethyl)-1H-pyrazolo[3,4-d]pyrimidin-4(5H)-one]",388 nM
11,"Cc1nc2c(c(CO)nn2C(C)c2ccc3c(c2)OC(F)(F)O3)c(=O)[nH]1 (single isomer, unassigned) [Example 115, (S)- or (R)-1-(1-(2,2-Difluorobenzo[d][1,3]dioxol-5-yl)ethyl)-3-(hydroxymethyl)-6-methyl-1H-pyrazolo[3,4-d]pyrimidin-4(5H)-one]",7.2 nM
12,"Cc1nc2c(c(C(F)F)nn2C(C)c2ccc(SC(F)(F)F)cc2)c(=O)[nH]1 (single isomer, unassigned) [Example 180, (S)- or (R)-3-(Difluoromethyl)-6-methyl-1-(1-(4-(trifluoromethylthio)phenyl)ethyl)-1H-pyrazolo[3,4-d] pyrimidin-4(5H)-one]",0.55 nM
13,"Cc1nc2c(c(CO)nn2C(C)c2ccc(C3(C)CC3)cc2)c(=O)[nH]1 (single isomer, unassigned) [Example 143, (R)- or (S)-3-(Hydroxymethyl)-6-methyl-1-(1-(4-(1-methylcyclopropyl)phenyl)ethyl)-1H-pyrazolo[3,4-d]pyrimidin-4(5H)-one]",193 nM
14,"Cc1nc2c(c(CC(F)(F)F)nn2C(C)c2ccc(OC(F)(F)F)cc2)c(=O)[nH]1 (single isomer, unassigned) [Example 66, (R)- or (S)-6-Methyl-3-(2,2,2-trifluoroethyl)-1-(1-(4-(trifluoromethoxy)phenyl)ethyl)-1H-pyrazolo[3,4-d]pyrimidin-4(5H)-one]",327 nM
15,"Cc1nc2c(c(CO)nn2C(C)c2ccc(C3(C(F)(F)F)CC3)cc2)c(=O)[nH]1 (single isomer, unassigned) [Example 80]",624 nM
16,"Cc1nc2c(c(CO)nn2C2(c3ccc(C(F)(F)F)cc3)COC2)c(=O)[nH]1 [Example 79, 3-(Hydroxymethyl)-6-methyl-1-(3-(4-(trifluoromethyl)phenyl)oxetan-3-yl)-1H-pyrazolo[3,4-d]pyrimidin-4(5H)-one]",23 nM
17,"Cc1nc2c(c(C(F)F)nn2C(C)c2ccc(C3(C(F)(F)F)CC3)cc2)c(=O)[nH]1 (centres unmarked) [Example 164, 3-(Difluoromethyl)-6-methyl-1-(1-(4-(1-(trifluoromethyl)cyclopropyl)phenyl)ethyl)-1H-pyrazolo[3,4-d]pyrimidin-4(5H)-one]",8.2 nM
18,"CCC(c1ccc(OC(F)(F)F)cc1)n1nc(CO)c2c(=O)[nH]c(C)nc21 (single isomer, unassigned) [Example 134, (R)- or (S)-3-(Hydroxymethyl)-6-methyl-1-(1-(4-(trifluoro-methoxy)phenyl)propyl)-1H-pyrazolo[3,4-d]pyrimidin-4(5H)-one]",51 nM
19,"Cc1nc2c(c(CC(O)C(F)(F)F)nn2C(C)c2ccc(C(F)(F)F)cc2)c(=O)[nH]1 (single isomer, unassigned) [Example 240]",434 nM

# Now from value to compound:
row,Ki,SMILES
1,467 nM,"Cc1nc2c(c(CO)nn2C(CC(F)(F)F)c2ccc(C(F)(F)F)cc2)c(=O)[nH]1 (single isomer, unassigned) [Example 97, (S)- or (R)-3-(Hydroxymethyl)-6-methyl-1-(3,3,3-trifluoro-1-(4-(trifluoromethyl)phenyl)propyl)-1H-pyrazolo[3,4-d]pyrimidin-4(5H)-one]"
2,2.8 nM,"CC(c1ccc(C(F)(F)F)cc1)n1nc(CO)c2c(=O)[nH]c(C3CC3)nc21 (single isomer, unassigned) [Example 300, (S)- or (R)-6-Cyclopropyl-3-(hydroxymethyl)-1-{1-[4-(trifluoromethyl)phenyl]ethyl}-1,5-dihydro-4H-pyrazolo[3,4-d]pyrimidin-4-one]"
3,33 nM,"Cc1nc2c(c([C@H](C)CO)nn2[C@@H](C)c2ccc(C(F)(F)F)cc2)c(=O)[nH]1 (single isomer, unassigned) [Example 321]"
4,58 nM,"Cc1nc2c(c(CO)nn2C(C)c2ccc(C(F)(F)F)nn2)c(=O)[nH]1 (single isomer, unassigned) [Example 146, (S)- or (R)-3-(Hydroxymethyl)-6-methyl-1-(1-(6-(trifluoromethyl)pyridazin-3-yl)ethyl)-1H-pyrazolo[3,4-d]pyrimidin-4(5H)-one]"
5,104 nM,"CC(=O)c1ccc(C(C)n2nc(CO)c3c(=O)[nH]c(C)nc32)cc1 (single isomer, unassigned) [Example 291]"
6,392 nM,"Cc1nc2c(c(CO)nn2C(C)c2ccc(C(C)(F)F)cc2)c(=O)[nH]1 (single isomer, unassigned) [Example 116, (R)- or (S)-1-(1-(4-(1,1-Difluoroethyl)phenyl)ethyl)-3-(hydroxymethyl)-6-methyl-1H-pyrazolo[3,4-d]pyrimidin-4(5H)-one]"
7,1180 nM,"Cc1nc2c(c(CO)nn2C(C)c2ccc(C(F)(F)F)cn2)c(=O)[nH]1 (single isomer, unassigned) [Example 152, (S)- or (R)-3-(Hydroxymethyl)-6-methyl-1-(1-(5-(trifluoromethyl)pyridin-2-yl)ethyl)-1H-pyrazolo[3,4-d]pyrimidin-4(5H)-one]"
8,203 nM,"Cc1nc2c(c(-c3ccco3)nn2C(C)c2ccc(C(F)(F)F)cc2)c(=O)[nH]1 (single isomer, unassigned) [Example 75, (S)- or (R)-3-(Furan-2-yl)-6-methyl-1-(1-(4-(trifluoromethyl)phenyl)ethyl)-1H-pyrazolo[3,4-d]pyrimidin-4(5H)-one]"
9,13 nM,"CC(c1ccc(C(F)(F)F)cc1)n1nc(CO)c2c(=O)[nH]c(CC3CCCC3)nc21 (single isomer, unassigned) [Example 307, (R)- or (S)-6-(Cyclopentyl-methyl)-3-(hydroxymethyl)-1-(1-(4-(trifluoromethyl)-phenyl)ethyl)-1,5-dihydro-4H-pyrazolo[3,4-d]pyrimidin-4-one]"
10,8.2 nM,"Cc1nc2c(c(CO)nn2C2(c3ccc(C(F)(F)F)cc3)CC2)c(=O)[nH]1 [Example 142, 3-(Hydroxymethyl)-6-methyl-1-(1-(4-(trifluoromethyl)phenyl)cyclopropyl)-1H-pyrazolo[3,4-d]pyrimidin-4(5H)-one]"
11,299 nM,"CC(c1ccc(C(F)(F)F)cc1)n1nc(-c2nnco2)c2c(=O)[nH]c(CC3CCCC3)nc21 (single isomer, unassigned) [Example 343, (S) or (R)-6-(Cyclopentylmethyl)-3-(1,3,4-oxadiazol-2-yl)-1-(1-(4-(trifluoromethyl)phenyl)ethyl)-1,5-dihydro-4H-pyrazolo[3,4-d] pyrimidin-4-one]"
12,1010 nM,"CC(c1ccc(C(F)(F)F)cc1)n1nc(C#N)c2c(=O)[nH]c(CC3CCCC3)nc21 (single isomer, unassigned) [Example 351]"
13,150 nM,"COCc1nc2c(c(CO)nn2C(C)c2ccc(S(F)(F)(F)(F)F)cc2)c(=O)[nH]1 (single isomer, unassigned) [Example 317, (R)- or (S)-3-(Hydroxy-methyl)-6-(methoxy-methyl)-1-{1-[4-(pentafluoro-sulfanyl)-phenyl]ethyl}-1,5-dihydro-4H-pyrazolo[3,4-d]pyrimidin-4-one]"
